For 35 compounds, fold induction results are on record in patent publication US9115341B2, “Method for expanding hematopoietic stem cells using heterocyclic compound” (Nissan Chemical Industries, Ltd., priority 2007, dated 2015).

Some results are limits rather than exact numbers.

One test deals with human cord blood-derived CD34+ cells. Nature of the test: Expansion of CD34+ cells from human cord blood-derived CD34+ cells. Conditions: 168 h, 0.3 μg/mL compound, number of CD34+ cells relative to absence of compound, 7 days, StemSpan SFEM with 100 ng/mL SCF, read-out: Expansion efficiency. Type of test: cell-based. Here is the method:
Commercially available human cord blood-derived CD34^+ cells (Cambrex Bio Science Walkersville) were plated on a 12-well plate (Corning) (from 5000 to 10000 cells/1 ml/well). As the culture medium, StemSpan SFEM (Stemcell Technologies) containing 100 ng/mL SCF (R&D Systems) was used, and Compounds Nos. 1 to 37 dissolved in dimethyl sulfoxide were added in an amount of 0.1% (v/v) to a final concentration of 0.3 or 1 μg/mL.
After the cells were incubated in liquid culture at 37° C. for 7 days in a CO2 incubator (in an atmosphere containing 5 vol % CO2), the total number of cells was counted by trypan blue assay (Invitrogen) or Flow-Count™ fluorosphere assay (Beckman Coulter). The number of CD34^+ cells was calculated as follows. After the incubation, the cells in the liquid culture was stained with a CD34 antibody (PE, Becton, Dickinson and Company). The stained cells were analyzed with a flow cytometer (Beckman Coulter) to determined the proportion of CD34^+ cells, which was multiplied by the total number of cells to calculate the number of CD34^+ cells.
The expansion efficiencies in the presence of 0.3 μg/mL or 1 μg/mL of compounds based on the number of CD34^+ cells in the absence of them are shown in Table 2 on a scale of A for expansion efficiencies of 3 or greater, and B for expansion efficiencies of at least 2 and less than 3.
As for `C/C(=N\NC(=O)c1ccc(C(=O)NCCc2ccccn2)s1)c1csc(-c2ccc(Cl)c(Cl)c2)c1O` [Compound 27], the fold induction at 0.3 µg/mL is 2 to 3.
As for `C/C(=N\NC(=O)c1ccc(C(=O)NCCc2cccnc2)s1)c1csc(-c2ccc(C(F)(F)F)cc2)c1O` [Compound 33], the fold induction at 0.3 µg/mL is no less than 3.
For `C/C(=N\NC(=O)c1ccc(C(=O)NCCc2ccncc2)s1)c1csc(-c2ccc(OC(F)(F)F)cc2)c1O` [Compound 30], the fold induction at 0.3 µg/mL is no less than 3.
On the same count and under the same terms, then `C/C(=N\NC(=O)c1ccc(C(=O)NCCc2cccnc2)s1)c1csc(-c2ccc(OC(F)(F)F)cc2)c1O` [Compound 32], with no less than 3.
Same read-out and setting: with `C/C(=N\NC(=O)c1ccc(C(=O)NCCc2cccnc2)s1)c1csc(-c2ccc(Cl)c(Cl)c2)c1O` [Compound 29] the figure was no less than 3; with `C/C(=N\NC(=O)c1ccc(C(=O)NCCc2ccncc2)s1)c1csc(-c2ccc(C(F)(F)F)cc2)c1O` [Compound 31], no less than 3.

Staying with this test, now noted: 168 h, 1 μg/mL compound, number of CD34+ cells relative to absence of compound, 7 days, StemSpan SFEM with 100 ng/mL SCF, read-out: Expansion efficiency.
For the compound `C/C(=N\NC(=S)Nc1ccc(C(=O)O)c(Cl)c1)c1csc(-c2ccc(Cl)c(Cl)c2)c1O` [Compound 14], the fold induction at 1 µg/mL was no less than 3.
On the same count and under the same terms, with `C/C(=N\NC(=S)Nc1ccc(C(=O)O)c([N+](=O)[O-])c1)c1csc(-c2ccc(C(F)(F)F)cc2)c1O` [Compound 12] the figure was no less than 3; with `C/C(=N\NC(=S)Nc1cccc(C(=O)O)c1)c1csc(-c2ccc(C)c(C)c2)c1O` [Compound 21], no less than 3; with `C/C(=N\NC(=O)c1ccc(C(=O)NCCc2ccnn2C)s1)c1csc(-c2ccc(Cl)c(Cl)c2)c1O` [Compound 35], no less than 3.
Still for that read-out and setting: with `C/C(=N\NC(=O)c1ccc(C(=O)O)s1)c1csc(-c2ccc(C(F)(F)F)cc2)c1O` [Compound 7] the figure was no less than 3.
Still for that read-out and setting: then `C/C(=N\NC(=O)c1ccc(C(=O)NCCO)s1)c1csc(-c2ccc(C(F)(F)F)cc2)c1O` [Compound 19], with no less than 3.
`C/C(=N\NC(=O)c1ccc(C(=O)NCCc2ccncc2)s1)c1csc(-c2ccc(Cl)c(Cl)c2)c1O` [Compound 28]: the fold induction at 1 µg/mL was no less than 3.
Still for that read-out and setting: then `C/C(=N\NC(=S)Nc1ccc(C(=O)O)c(Cl)c1)c1nn(C)c(-c2ccc(C(F)(F)F)cc2)c1O` [Compound 13], with no less than 3.
Same read-out and setting: then `C/C(=N\NC(=O)c1ccc(C(=O)NCCCc2ccncc2)s1)c1csc(-c2ccc(C(F)(F)F)cc2)c1O` [Compound 36], with no less than 3; and `C/C(=N\NC(=S)Nc1cccc(C(=O)O)c1)c1csc(-c2ccc(C(C)(C)C)cc2)c1O` [Compound 20], with no less than 3; and `C/C(=N\NC(=O)c1ccc(C(=O)NCC(=O)O)s1)c1csc(-c2ccc(OC(F)(F)F)cc2)c1O` [Compound 25], with no less than 3.
On the same count and under the same terms, then `C/C(=N\NC(=S)Nc1cccc(C(=O)O)c1)c1nn(C)c(-c2ccc(C(F)(F)F)cc2)c1O` [Compound 18], with no less than 3; and `C/C(=N\NC(=O)c1ccc(C(=O)O)c([NH2+][O-])c1)c1csc(-c2ccc(Cl)c(Cl)c2)c1O` [Compound 5], with 2 to 3.
Take `C/C(=N\NC(=O)c1ccc(C(=O)O)s1)c1csc(-c2ccc(Cl)c(Cl)c2)c1O` [Compound 6]: the fold induction at 1 µg/mL was 2 to 3.
On the same count and under the same terms, with `C/C(=N\NC(=O)c1ccc(C(=O)O)c([NH2+][O-])c1)c1csc(-c2ccc(C(F)(F)F)cc2)c1O` [Compound 8] the figure was no less than 3; with `C/C(=N\NC(=O)c1ccc(C(=O)N2CCCC2)s1)c1csc(-c2ccc(C(F)(F)F)cc2)c1O` [Compound 15], no less than 3.
In the case of `C/C(=N\NC(=O)c1ccc(C(=O)NC(C)C)s1)c1nn(C)c(-c2ccc(Cl)c(Cl)c2)c1O` [Compound 26], the fold induction at 1 µg/mL was no less than 3.
Same read-out and setting: with `C/C(=N\NC(=S)Nc1ccc(C(=O)O)cc1)c1nn(C)c(-c2ccc(C(F)(F)F)cc2)c1O` [Compound 1] the figure was no less than 3; with `C/C(=N\NC(=O)c1ccc(C(=O)O)cc1)c1csc(-c2ccc(Cl)c(Cl)c2)c1O` [Compound 2], 2 to 3; with `C/C(=N\NC(=S)Nc1ccc(C(=O)O)cc1)c1csc(-c2ccc(C)c(C)c2)c1O` [Compound 22], no less than 3.
Regarding `C/C(=N\NC(=O)c1ccc(C(=O)NCc2cc(C)n(C)n2)s1)c1nn(C)c(-c2ccc(C(F)(F)F)cc2)c1O` [Compound 37], the fold induction at 1 µg/mL was no less than 3.
Same read-out and setting: then `C/C(=N\NC(=S)Nc1cccc(C(=O)O)c1)c1csc(-c2ccc(Cl)c(Cl)c2)c1O` [Compound 16], with 2 to 3; and `C/C(=N\NC(=S)Nc1ccc(C(=O)O)c([N+](=O)[O-])c1)c1csc(-c2ccc(C(C)(C)C)cc2)c1O` [Compound 10], with no less than 3.
Still for that read-out and setting: then `C/C(=N\NC(=S)Nc1ccc(C(=O)O)c([N+](=O)[O-])c1)c1csc(-c2ccc(Cl)c(Cl)c2)c1O` [Compound 11], with no less than 3; and `C/C(=N\NC(=S)Nc1ccc(S(N)(=O)=O)cc1)c1nn(C)c(-c2ccc(Cl)c(Cl)c2)c1O` [Compound 23], with 2 to 3.
Still for that read-out and setting: then `C/C(=N\NC(=O)c1ccc(C(=O)NCCCc2ccncc2)s1)c1csc(-c2ccc(Cl)c(Cl)c2)c1O` [Compound 34], with no less than 3.
Turning to `C/C(=N\NC(=S)Nc1ccc(C(=O)O)cc1)c1csc(-c2ccc(C(F)(F)F)cc2)c1O` [Compound 3], the fold induction at 1 µg/mL is no less than 3.
The same measure, in the same setting: then `C/C(=N\NC(=O)c1ccc(C(=O)O)cc1N)c1nn(C)c(-c2ccc(C(F)(F)F)cc2)c1O` [Compound 24], with no less than 3; and `C/C(=N\NC(=O)c1ccc(C(=O)O)c([NH2+][O-])c1)c1csc(-c2ccc(C(C)(C)C)cc2)c1O` [Compound 4], with no less than 3.
